Entries after “also recorded” stand apart in the source; their conditions may differ.
Assays:
[1] = target: T1, human potassium channel hERG (Homo sapiens, UniProt Q12809); assay: FluxOR II Green Potassium Ion Channel Assay with HEK293-hERG cells; type: cell-based; details: at 20 μM/L
T1 construct: expressed in transfected cells; host or cells: HEK293-hERG
Protocol: For compound of EXAMPLE 93, The FluxOR™ II Green Potassium Ion Channel Assay with HEK293-hERG cells (stably expressing human potassium channel hERG) seeded on Poly-D-Lysine-coated 384-well microplates (Corning, Cat. #356663) was used according to the manufacturer's instructions. hERG stimulation buffer containing thallium and potassium was added and the intracellular fluorescence was measured.

[2] = target: T2, human CAR ligand-binding domain (LBD) (Homo sapiens, UniProt Q14994); assay: TR-FRET CAR Coactivator Binding Assay (LanthaScreen); type: biochemical
T2 construct: purchased ThermoFisher Scientific PV4836
T2 sequence (Q14994 103-348 isoform Q14994-2 limits assumed, other chains not shown): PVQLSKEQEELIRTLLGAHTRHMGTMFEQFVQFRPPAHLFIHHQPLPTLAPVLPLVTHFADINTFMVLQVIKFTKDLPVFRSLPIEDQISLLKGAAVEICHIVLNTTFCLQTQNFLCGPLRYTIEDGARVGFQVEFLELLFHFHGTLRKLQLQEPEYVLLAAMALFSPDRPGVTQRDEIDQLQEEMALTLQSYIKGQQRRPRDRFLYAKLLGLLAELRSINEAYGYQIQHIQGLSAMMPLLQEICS
Excerpt: The assay uses two fluorophores: a terbium-labeled anti-GST antibody interacting with glutathione-S-transferase tagged human CAR ligand-binding domain (LBD) and a fluorescein-labeled PGC1α coactivator peptide. […] Values above 1 represent the agonistic activity on CAR with subsequent CAR-PGC1α interaction.

PPARγ = target: T3, PPARγ (Homo sapiens, UniProt P37231); assay: Luciferase reporter assay with GAL4 construct with LBD, PPARγ; type: cell-based; details: 10 μM/L
T3 construct: luciferase reporter assays with a GAL4 constructs with LBD of tested nuclear receptors; expressed in transfected cells
T3 sequence (P37231 238-503 limits assumed): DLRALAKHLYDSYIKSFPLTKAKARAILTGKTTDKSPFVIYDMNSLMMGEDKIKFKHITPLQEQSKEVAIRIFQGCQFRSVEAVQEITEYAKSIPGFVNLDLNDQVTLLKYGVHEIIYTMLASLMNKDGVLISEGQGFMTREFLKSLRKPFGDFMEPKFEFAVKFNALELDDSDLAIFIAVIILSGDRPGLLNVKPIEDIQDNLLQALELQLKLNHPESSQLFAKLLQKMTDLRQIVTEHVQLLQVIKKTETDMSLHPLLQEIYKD

[3] = system: CYP2B6 mRNA in HepaRG KO CAR cells; assay: RT-qPCR of CYP2B6 mRNA in HepaRG KO CAR cells; type: cell-based, human; details: 24 h of treatment (FIG. 3)
Excerpt: (§1) Delta-delta method and GAPDH/Gapdh or B2M/B2m housekeeping genes were used for relative quantification. Data are expressed as fold up-/down-regulation compare to vehicle-treated samples/mice.

[4] = Human plasma protein binding (micro-equilibrium dialysis); type: in vitro ADME; details: at 1 μM/L
[5] = system: CAR target genes mRNAs (Cyp2b10, Cyp2c29, CYP3A4); assay: Single dose study in humanized PXR-CAR-CYP3A4/3A7 mice, liver RT-qPCR; type: in vivo; details: single p.o. 10 mg/kg, 24 hours (FIG. 5)
human CAR LBD = target: T4, human CAR LBD (Homo sapiens, UniProt Q14994); assay: CAR LBD assembly assay (two hybrid luciferase reporter in HepG2 cells); type: cell-based
T4 construct: C (151-349 aa) and N (103-150 aa) terminal parts of human CAR LBD; N (103-150 aa) terminal parts of human CAR LBD; expressed in transfected cells; host or cells: HepG2
T4 sequence (Q14994 151-348 isoform Q14994-2 limits assumed): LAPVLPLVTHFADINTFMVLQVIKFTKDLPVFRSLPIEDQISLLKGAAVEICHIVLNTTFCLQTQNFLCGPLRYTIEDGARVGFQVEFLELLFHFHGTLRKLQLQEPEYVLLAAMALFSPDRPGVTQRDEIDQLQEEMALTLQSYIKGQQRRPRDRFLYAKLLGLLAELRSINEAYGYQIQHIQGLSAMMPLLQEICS
T4 sequence (Q14994 103-150 isoform Q14994-2 limits assumed): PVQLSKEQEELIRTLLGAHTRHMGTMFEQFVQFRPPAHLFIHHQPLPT
Protocol: A ligand promotes connection of the two parts of CAR LBD resulting in luciferase transactivation. Luminescence activity in the cell lysate was measured using a commercially available luciferase detection system (Catalog Number E1960, Dual Luciferase Reporter Assay Kit, Promega, Madison, Wis., USA). The data are presented as means and S.D. and expressed as the fold-change of firefly luciferase activity normalized to Renilla luciferase activity in each sample and relative to the vehicle (DMSO 0.1%)-treated controls, which were set at 1.

COS-1 cells = assay: Cytotoxicity, cell viability (MTS) in COS-1; type: cell-based, African green monkey; details: Chlorocebus sabaeus, 48-h treatment, no significant effect at 30 μM/L
Protocol: Cell viability in HepG2 and COS-1 cells after a 48 h treatment with test compounds at a concentration from 1 up to 30 μM was determined using the modified formazan-based […] assay. […] Briefly, the cells were treated with the test compounds or vehicle alone (DMSO) for 48 h. At the end of the treatment, 20 μl of MTS reagent was added directly to each culture wells and further cultivated for 1.5 h. Finally, the absorbance of converted formazan was recorded at 490 nm by plate reader (BioTec Synergy 2. Winooski. Vt. USA). Vehicle (DMSO) and TritonX100 (0.9%; v/v) controls of cell viability were set to be 100% and 0%, respectively.

in vivo = details: C57BL/6, mouse, 10 mg/kg
[6] = Metabolic stability in human liver S9 fraction; type: in vitro ADME; details: read-out: T1/2 in human liver S9 fraction
[7] = system: CYP2B6 mRNA (CAR target gene); assay: RT-qPCR of CYP2B6 mRNA in HepaRG cells; type: cell-based, human; details: 24 h of treatment (FIG. 3)
Excerpt: as §1

human CYP2D6 = target: T5, human CYP2D6 (Homo sapiens, UniProt P10635); assay: Commercial CYP450-Glo inhibition assay, CYP2D6; type: in vitro ADME
T5 construct: purchased Promega V8891
T5 sequence (P10635 whole entry): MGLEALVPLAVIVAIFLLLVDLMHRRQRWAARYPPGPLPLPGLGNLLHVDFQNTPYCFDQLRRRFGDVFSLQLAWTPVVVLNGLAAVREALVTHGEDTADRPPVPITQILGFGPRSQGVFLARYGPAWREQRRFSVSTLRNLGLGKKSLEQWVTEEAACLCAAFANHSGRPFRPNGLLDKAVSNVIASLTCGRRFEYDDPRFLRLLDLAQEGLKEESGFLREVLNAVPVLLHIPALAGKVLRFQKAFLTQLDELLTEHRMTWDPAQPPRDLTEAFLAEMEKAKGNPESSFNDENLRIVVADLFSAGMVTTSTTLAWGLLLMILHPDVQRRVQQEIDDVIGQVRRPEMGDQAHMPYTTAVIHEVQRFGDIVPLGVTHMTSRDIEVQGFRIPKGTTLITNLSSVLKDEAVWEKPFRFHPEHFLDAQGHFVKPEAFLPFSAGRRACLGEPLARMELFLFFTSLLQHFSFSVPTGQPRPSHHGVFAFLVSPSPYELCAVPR

[8] = system: Salmonella typhimurium strains TA 98, TA 100, TA 1535, TA 1537 and Escherichia coli WP2 uvrA strain; assay: Bacterial Reverse Mutation Test (OECD 471)
human PXR = target: T6, human PXR (Homo sapiens, UniProt O75469); assay: PXR-responsive luciferase reporter gene assay in HepG2 cells
T6 sequence (O75469 1-434): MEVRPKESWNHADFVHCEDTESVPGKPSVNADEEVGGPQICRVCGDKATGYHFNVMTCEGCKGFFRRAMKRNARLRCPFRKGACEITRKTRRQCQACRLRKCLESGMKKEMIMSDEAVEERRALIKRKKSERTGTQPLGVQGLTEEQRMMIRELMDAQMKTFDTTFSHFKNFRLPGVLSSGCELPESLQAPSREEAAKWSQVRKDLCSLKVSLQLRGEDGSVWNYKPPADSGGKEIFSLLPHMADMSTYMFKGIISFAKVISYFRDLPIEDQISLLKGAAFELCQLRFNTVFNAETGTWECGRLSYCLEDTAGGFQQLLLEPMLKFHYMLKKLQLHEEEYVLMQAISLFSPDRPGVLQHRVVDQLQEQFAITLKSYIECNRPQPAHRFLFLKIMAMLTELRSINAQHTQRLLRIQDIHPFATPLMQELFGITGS

[9] = Stability in human plasma; type: in vitro ADME; details: over 120 minutes
[10] = system: CAR+A-EGFP fusion protein; assay: CAR+A-EGFP translocation into nucleus in COS-1 cells; type: cell-based; details: 10 μM/L, 48 h

T1 sequence (Q12809 whole entry): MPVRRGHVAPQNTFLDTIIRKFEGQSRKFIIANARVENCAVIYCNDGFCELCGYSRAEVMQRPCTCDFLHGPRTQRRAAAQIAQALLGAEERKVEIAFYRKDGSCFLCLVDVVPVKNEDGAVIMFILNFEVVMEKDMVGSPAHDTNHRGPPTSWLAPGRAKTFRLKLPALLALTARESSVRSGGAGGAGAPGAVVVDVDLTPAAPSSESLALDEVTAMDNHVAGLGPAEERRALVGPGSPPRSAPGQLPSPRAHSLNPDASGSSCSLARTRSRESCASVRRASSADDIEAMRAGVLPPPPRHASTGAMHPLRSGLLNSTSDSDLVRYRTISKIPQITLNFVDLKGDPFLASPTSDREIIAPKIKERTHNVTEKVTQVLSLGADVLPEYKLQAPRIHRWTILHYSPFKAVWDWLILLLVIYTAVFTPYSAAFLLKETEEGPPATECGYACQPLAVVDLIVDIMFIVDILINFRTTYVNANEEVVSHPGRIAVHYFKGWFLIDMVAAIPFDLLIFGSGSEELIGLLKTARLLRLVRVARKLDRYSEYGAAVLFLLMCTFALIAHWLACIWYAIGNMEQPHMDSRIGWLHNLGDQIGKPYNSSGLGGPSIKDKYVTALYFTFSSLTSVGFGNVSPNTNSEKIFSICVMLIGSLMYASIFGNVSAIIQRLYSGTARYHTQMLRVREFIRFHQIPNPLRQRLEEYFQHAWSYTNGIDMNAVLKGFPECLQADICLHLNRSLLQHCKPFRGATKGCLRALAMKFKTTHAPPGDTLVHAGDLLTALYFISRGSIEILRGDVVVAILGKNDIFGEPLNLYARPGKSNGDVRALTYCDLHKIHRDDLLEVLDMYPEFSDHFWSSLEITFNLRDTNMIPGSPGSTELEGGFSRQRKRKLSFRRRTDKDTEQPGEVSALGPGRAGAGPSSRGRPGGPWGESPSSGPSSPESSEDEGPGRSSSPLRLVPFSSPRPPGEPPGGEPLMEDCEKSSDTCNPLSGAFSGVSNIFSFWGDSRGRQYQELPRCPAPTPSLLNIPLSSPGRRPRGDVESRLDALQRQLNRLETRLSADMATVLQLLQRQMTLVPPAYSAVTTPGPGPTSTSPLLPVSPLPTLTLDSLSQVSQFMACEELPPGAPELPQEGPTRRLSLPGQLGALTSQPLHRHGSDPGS

NC(=O)c1cc(Cn2cc(-c3c(-c4ccc(Cl)cc4)nc4cc(F)ccn34)nn2)ccc1Cl [Example 93, 2-Chloro-5-((4-(2-(4-chlorophenyl)-7-fluoroimidazo[1,2-a]pyridin-3-yl)-1H-1,2,3-triazol-1-yl)methyl)benzamide]
interference with hERG activity (FluxOR, HEK293-hERG) [1]: do not interfere with hERG activity | EC50 [2]: 71 nM | activation of PPARγ (PPARγ): do not activate | CYP2B6 mRNA in HepaRG KO CAR cells [3]: not in HepaRG KO CAR cells | fraction unbound at 1 μM [4]: 0.01 | CYP3A4 mRNA in the liver [5]: up-regulate | Cyp2b10 mRNA in the liver [5]: up-regulate | Cyp2c29 mRNA in the liver [5]: up-regulate | EC50 (human CAR LBD): 380 nM | IC50 (COS-1 cells): > 30000 nM | half-life (in vivo; ip): 3.62 h | half-life (in vivo; oral): 2.83 h | half-life at 2 μM [6]: > 2.83 h | CYP2B6 mRNA in differentiated HepaRG cells [7]: upregulates; also recorded: up-regulation | IC50 (human CYP2D6): > 10000 nM | mutagenicity in Bacterial Reverse Mutation Test ([8]; all indicator strains, with and without metabolic activation): non-mutagenic | number of revertants compared to solvent controls (Rt/Rc) ([8]; with or without S9 fraction): < 2 | PXR % of RIF activity (10 μM) at 10 μM (human PXR; tested at 10 μM, HepG2, 24 h): No activation | selectivity and specificity for human CAR in comparison with CITCO (FIG. 2) (human PXR; versus PXR): highly selective and specific for human CAR | stability in human plasma [9]: stable | CAR+A-EGFP fusion protein translocation into nucleus [10]: significantly stimulates
